How the values were obtained:
Type in all cases: cell-based
[1] = system: Fusarium virguliforme isolate 1; assay: Efficacy of purified CtmC, 96-well growth assay, IC50 from OD620
Description: (§1) A Fusarium virguliforme spore suspension of 25′000 spores/ml was produced in PDB (potato dextrose broth) medium supplemented with 0.3% agar. Isolates of the species originate from Syngenta internal collection (CH).
(§2) CtmC was dissolved in DMSO (Dimethylsulfoxid) to a final concentration of 1000 ppm to create a stock solution. Different dilutions of CtmC were created in DMSO: 1000 ppm, 330 ppm, 110 ppm, 37 ppm, 12 ppm and 4.1 ppm. 10 μl of DMSO or CtmC solution were transferred to a 96-well-dilution plate and diluted 10-fold with 90 μl 0.025% Tween 20/1H2O solution. Out of the dilution plate, 10 μl were transferred to a 96 well assay plate and 90 μl spore suspension were added to each well.
(§3) 96 Well plates were then incubated for 72 h at 24° C., 90% relative humidity in the dark. Plates were evaluated by reading the OD at 620 nm.
(§4) Assays were run on two independent isolates for the species. Each isolate was tested twice (assay 1 and assay 2) and each isolate x fungicide rate combination was duplicated on the test plates.
(§5) The OD620 was averaged over the two wells and used to calculate IC50 values (fungicide concentration resulting in 50% inhibition of growth) with the program GraphPad prism, resulting in 4 independent IC50 values. No significant differences were found between both isolates tested: […]

[2] = system: Fusarium virguliforme isolate 2; assay: as above
Description: as §1, §2, §3, §4, §5

Monographella nivalis = assay: Efficacy of purified CtmC in-vitro, microtiter plate growth inhibition; conditions: rate 10 ppm; 72 hrs at 24° C.
Description: CtmC was dissolved in DMSO (Dimethylsulfoxid) to a final concentration of 1000 ppm to create a stock solution. A second dilutions of 1:10 was made in water+0.025% Tween 20. From this second dilution 10 μl are dispensed into a 96-well plate. To each well, 90 μl of medium with fungal spores are added and mixed, resulting in final CtmC concentrations of 10 ppm. All wells containing CtmC also contain DMSO (1%) and Tween 20 (0.0025%).
Monographella nivalis (snow mould, foot rot of cereals): Conidia of the fungus from cryogenic storage were directly mixed into nutrient broth (PDB potato dextrose broth). After placing a solution of the test compounds into a microtiter plate (96-well format) the nutrient broth containing the fungal spores was added.

[3] = system: Cercospora kikuchii K6080; assay: Efficacy of purified CtmC alone in-vitro, 96 well plate, OD 620 nm; conditions: CtmC 10 ppm
Description: (§6) CtmC was dissolved in DMSO (Dimethylsulfoxid) to a final concentration of 1000 ppm to create a stock solution. A second dilutions of 1:10 was made in water+0.025% Tween 20. From this second dilution 10 μl are dispensed into a 96 well plate. To each well, 90 μl of medium (PDB—potato dextrose broth, plus 0.3% agar) with fungal spores are added and mixed, resulting in final CtmC concentrations of 10 ppm. All wells containing CtmC also contain DMSO (1%) and Tween 20 (0.0025%). In the following table 4 some of the species were tested using several distinct isolates (internal strain number indicated) to understand variability among different isolates of the same species sampled in different locations, producing different mycotoxins (genus Fusarium), or expressing various tolerances to fungicides of the SDHI (Succinate Dehydrogenase Inhibitor), SBI (Sterol Biosynthesis Inhibitors) and/or QoI (quinone outside inhibitors) classes (example: Zymoseptoria tritici). Different isolates had variable inoculum density and number of biological repicas, as indicated.

Cercospora sojina K5703 = assay: as above; conditions: CtmC 10 ppm
Description: as §6

[4] = system: Cochliobolus sativus K5817; assay: as above; conditions: CtmC 10 ppm
Description: as §6

[5] = system: Colletotrichum orbiculare K5770; assay: as above; conditions: CtmC 10 ppm
Description: as §6

[6] = system: Corynespora cassiicola K5577; assay: as above; conditions: CtmC 10 ppm
Description: as §6

Fusarium avenaceum K6940 = assay: as above; conditions: CtmC 10 ppm
Description: as §6

Fusarium culmorum K5488 = assay: as above; conditions: CtmC 10 ppm
Description: as §6

Fusarium culmorum K6937 = assay: as above; conditions: CtmC 10 ppm
Description: as §6

Fusarium culmorum K8196 = assay: as above; conditions: CtmC 10 ppm
Description: as §6

Fusarium poae K8039 = assay: as above; conditions: CtmC 10 ppm
Description: as §6

[7] = system: Gibberella fujikuroi K5299; assay: as above; conditions: CtmC 10 ppm
Description: as §6

Microdochium majus K7482 = assay: as above; conditions: CtmC 10 ppm
Description: as §6

[8] = system: Monographella nivalis K7484; assay: as above; conditions: CtmC 10 ppm
Description: as §6

[9] = system: Ramularia collo-cygni K6218; assay: as above; conditions: CtmC 10 ppm
Description: as §6

Septoria glycines K5204 = assay: as above; conditions: CtmC 10 ppm
Description: as §6

[10] = system: Ustilago segetum var. tritici K5349; assay: as above; conditions: CtmC 10 ppm
Description: as §6

[11] = system: Zymoseptoria tritici K6420; assay: as above; conditions: CtmC 10 ppm
Description: as §6

[12] = system: Zymoseptoria tritici K7953; assay: as above; conditions: CtmC 10 ppm
Description: as §6

Gibberella zeae K6102 = conditions: CtmC 10 ppm
Tilletia tritici K5212 = assay: Efficacy of purified CtmC alone in-vitro, 96 well plate, OD 620 nm; conditions: CtmC 10 ppm
[13] = 72 h at 24° C., 25'000 spores/ml

Compound: C=C1NC(=O)CNC(=O)[C@H](CCCCN)NC(=O)[C@@]2(C)NC(=O)/C(=C/C)NC(=O)[C@H]3CSC(=N3)[C@@H](CC(N)=O)CC(=O)c3ccc(nc3[C@@H](C)NC(=O)[C@@H]3CCCN3C1=O)-c1nc(cs1)C1=N[C@H](CS1)C(=O)NC(=C)c1nc(cs1)-c1nc(cs1)C1=N[C@@H](CS1)C(=O)N[C@@H](C(=O)O)CS2 [CtmC, cyclothiazomycin C]
- IC50 (ppm) Assay-1 [1, 13]: 0.8 ppm
- IC50 (ppm) Assay-2 [1, 13]: 1.6 ppm
- IC50 (ppm) average ([1]; average of Assay-1 and Assay-2): 1.2 ppm
- IC50 ([1]; both tested isolates): ca. 1 ppm
- IC50 (ppm) Assay-1 [2, 13]: 0.7 ppm
- IC50 (ppm) Assay-2 [2, 13]: 1.5 ppm
- IC50 (ppm) average ([2]; average of Assay-1 and Assay-2): 1.1 ppm
- IC50 ([2]; both tested isolates): ca. 1 ppm
- control of fungal growth (%) (Monographella nivalis): 100%
- efficacy (%) [3]: 100%
- optical density at 620 nm ([3]; blank 0.044, untreated 0.215): 0.043
- efficacy (%) (Cercospora sojina K5703): 54%
- optical density at 620 nm (Cercospora sojina K5703; blank 0.047, untreated 0.357): 0.188
- efficacy (%) [4]: 92%
- optical density at 620 nm ([4]; blank 0.044, untreated 0.701): 0.095
- efficacy (%) [5]: 56%
- optical density at 620 nm ([5]; blank 0.035, untreated 0.449): 0.218
- efficacy (%) [6]: 86%
- optical density at 620 nm ([6]; blank 0.047, untreated 0.427): 0.100
- efficacy (%) (Fusarium avenaceum K6940): 52%
- optical density at 620 nm (Fusarium avenaceum K6940; blank 0.054, untreated 0.410): 0.225
- efficacy (%) (Fusarium culmorum K5488): 52%
- optical density at 620 nm (Fusarium culmorum K5488; blank 0.046, untreated 0.374): 0.203
- efficacy (%) (Fusarium culmorum K6937): 44%
- optical density at 620 nm (Fusarium culmorum K6937; blank 0.052, untreated 0.528): 0.319
- efficacy (%) (Fusarium culmorum K8196): 48%
- optical density at 620 nm (Fusarium culmorum K8196; blank 0.055, untreated 0.701): 0.388
- efficacy (%) (Fusarium poae K8039): 62%
- optical density at 620 nm (Fusarium poae K8039; blank 0.050, untreated 0.619): 0.267
- efficacy (%) [7]: 47%
- optical density at 620 nm ([7]; blank 0.053, untreated 0.941): 0.528
- efficacy (%) (Microdochium majus K7482): 96%
- optical density at 620 nm (Microdochium majus K7482; blank 0.050, untreated 0.228): 0.057
- efficacy (%) [8]: 90%
- optical density at 620 nm ([8]; blank 0.054, untreated 0.233): 0.073
- efficacy (%) [9]: 60%
- optical density at 620 nm ([9]; blank 0.043, untreated 0.231): 0.119
- efficacy (%) (Septoria glycines K5204): 81%
- optical density at 620 nm (Septoria glycines K5204; blank 0.044, untreated 0.414): 0.115
- efficacy (%) [10]: 97%
- optical density at 620 nm ([10]; blank 0.044, untreated 0.304): 0.051
- efficacy (%) [11]: 93%
- optical density at 620 nm ([11]; blank 0.048, untreated 0.257): 0.064
- efficacy (%) [12]: 77%
- optical density at 620 nm ([12]; blank 0.055, untreated 0.235): 0.096
- efficacy (%) (Gibberella zeae K6102): 52%
- optical density at 620 nm (Gibberella zeae K6102; blank 0.044, untreated 0.733): 0.377
- efficacy (%) (Tilletia tritici K5212): 96%
- optical density at 620 nm (Tilletia tritici K5212; blank 0.046, untreated 0.451): 0.062
